Source: EP0426021A1, “Condensed imidazole derivatives and processes for preparation thereof” (FUJISAWA PHARMACEUTICAL CO., LTD., priority 1989, dated 1991)

Test system: spontaneous hypertensive rats
Conditions: oral dose of 100 mg/kg, dissolved in water, male spontaneous hypertensive rats
Method: (B) Effect on spontaneous hypertensive rats
14 to 17-week-old male spontaneous hypertensive rats with mean arterial blood pressure of about 150 mmHg, weighing 270-326 g, were used. The animals were cannulated in the left femoral artery and the mean blood pressure and heart rate were measured with a pressure-transducer. The drugs were given orally. The animals were deprived of food for about 18 hours before oral dosing. The test drugs were dissolved in water, and given in oral dose of 100 mg/kg.

CCCCc1nc2cccnc2n1Cc1ccc(-c2ccccc2-c2nnn[n-]2)cc1.[Na+] [compound ①, Sodium salt of 2-butyl-3-[[2′-(1H-tetrazol-5-yl)biphenyl-4-yl]methyl]-3H-imidazo[4,5-b]pyridine]
Effect Max (mean ratio of maximum decrease of blood pressure): 17.6%
